Tested on: WHHLMI rabbit
Assay: Xanthomatosis-inhibiting activity in rabbit model (extent of limb xanthoma at digital joints)
Type: in vivo
Conditions: male WHHLMI rabbit, digital joints of forelegs and hind legs; for Distribution of Severity: − (no occurrence), count of limb xanthoma assessments: control 2; for Distribution of Severity: +++ (mass), count of limb xanthoma assessments: control 4; for Distribution of Severity: + (dotting of granule), count of limb xanthoma assessments: control 8; for Distribution of Severity: ++ (scattering), count of limb xanthoma assessments: control 26
Protocol: A vehicle or the test compound 1 was orally administered to a 2 months old male WHHLMI rabbit (10 to 11 animals/group) in an amount of 100, 200 mg/kg in a mixed diet for 32 weeks. After the administration for 32 weeks, xanthoma was evaluated at the digital joints of forelegs and hind legs (Table 1). The extent of limb xanthoma was assessed by classifying into four stages: no occurrence (−), dotting of granule (+), scattering (++), mass (+++)

[1] = 100 mg/kg orally in mixed diet for 32 weeks
[2] = 200 mg/kg orally in mixed diet for 32 weeks

COc1cccc([C@H]2O[C@H](CC(=O)N3CCC(CC(=O)O)CC3)C(=O)N(CC(C)(C)COC(C)=O)c3ccc(Cl)cc32)c1OC [Test compound 1, N-{[(3R,5S)-1-(3-acetoxy-2,2-dimethylpropyl)-7-chloro-5-(2,3-dimethoxyphenyl)-2-oxo-1,2,3,5-tetrahydro-4,1-benzoxazepin-3-yl}acetyl}piperidine-4-acetic acid]
Distribution of Severity: − (no occurrence), count of limb xanthoma assessments [1]: 4
Distribution of Severity: +++ (mass), count of limb xanthoma assessments [1]: 0
Distribution of Severity: + (dotting of granule), count of limb xanthoma assessments [1]: 13
Distribution of Severity: ++ (scattering), count of limb xanthoma assessments [1]: 27
Distribution of Severity: − (no occurrence), count of limb xanthoma assessments [2]: 0
Distribution of Severity: +++ (mass), count of limb xanthoma assessments [2]: 0
Distribution of Severity: + (dotting of granule), count of limb xanthoma assessments [2]: 29
Distribution of Severity: ++ (scattering), count of limb xanthoma assessments [2]: 15

From US20090082333A1, “REMEDY FOR XANTHOMA” (NATIONAL UNIVERSITY CORPORATION KOBE UNIVERSITY, priority 2005, published 2009)
